# Measurements reported in PMC8234031, “Modular Assembly of Phosphite Dehydrogenase and Phenylacetone Monooxygenase for Tuning Cofactor Regeneration” (Biomolecules, 2021).
# Target: T1, PAMOI (RIDD-tagged PAMO) (Thermobifida fusca, UniProt Q47PU3)
# T1 construct: N-terminal 6xHis, C-terminal (GGGGS)x3 linker and 44-residue RIDD tag, kept; E. coli; 70 kDa; homodimer through the RIDD tag
# Experiment: UV-Vis absorbance ratio A280/A441 of the purified protein
# Assay type: binding
# Settings: co-purified flavin; ratio given for the tagged PAMO fusions together
# T1 sequence (Q47PU3 whole entry): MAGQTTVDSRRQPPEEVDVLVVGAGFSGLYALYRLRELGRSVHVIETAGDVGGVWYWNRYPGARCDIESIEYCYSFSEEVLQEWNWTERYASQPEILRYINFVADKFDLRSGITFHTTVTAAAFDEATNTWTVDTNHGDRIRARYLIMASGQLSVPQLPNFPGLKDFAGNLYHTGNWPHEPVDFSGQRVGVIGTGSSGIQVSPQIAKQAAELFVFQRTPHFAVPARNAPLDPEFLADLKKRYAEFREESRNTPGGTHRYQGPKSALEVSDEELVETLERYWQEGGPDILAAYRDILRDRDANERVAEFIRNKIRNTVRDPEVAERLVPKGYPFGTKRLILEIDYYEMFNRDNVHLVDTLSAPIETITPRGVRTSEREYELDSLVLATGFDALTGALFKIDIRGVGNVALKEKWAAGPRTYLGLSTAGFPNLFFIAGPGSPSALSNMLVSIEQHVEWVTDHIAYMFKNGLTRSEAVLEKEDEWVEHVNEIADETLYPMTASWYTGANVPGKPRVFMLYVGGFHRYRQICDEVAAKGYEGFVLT
smiles,measurement,value
Cc1cc2nc3c(=O)[nH]c(=O)nc-3n(C[C@H](O)[C@H](O)[C@H](O)COP(=O)(O)OP(=O)(O)OC[C@H]3O[C@@H](n4cnc5c(N)ncnc54)[C@H](O)[C@@H]3O)c2cc1C [FAD],UV-Vis absorbance ratio A280/A441 of the purified protein,The tagged variants of PAMO were purified as yellow proteins
